Broadly, the viscosity is the internal friction of a fluid under shear.

This is an account of results in the NIST ThermoML archive (doi:10.1021/acs.jced.8b01042).

Series [1] in a line: xn = mol fraction of the nth substance listed. As to conditions: 298.15 K; 101.3 kPa; Liquid; Capillary tube (Ostwald / Ubbelohde) method; x1 = 0.66.
The conditions of series [2]: 298.15 K; 100 kPa; Liquid; Capillary tube (Ostwald / Ubbelohde) method.

± gives the expanded uncertainty stated by the source.

Consider `OC1COCOC1` [1,3-dioxan-5-ol] + OCC1COCO1, for which the viscosity in series [1] was 20.05 ± 0.84 mPa·s.
Take `CC1(C)OCC(CO)O1` (stereo not drawn) [2,2-dimethyl-1,3-dioxolane-4-methanol]: the viscosity in series [2] was found to be 10.06 ± 0.42 mPa·s.
With `OCC(O)CO` [glycerol], in series [2], the viscosity came out at 1200 ± 97 mPa·s.
